Assay results reported in PubChem BioAssay (NCI).
Where “and” joins values, the source holds several entries; their conditions need not be identical. Equal entries are not always repeated.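 Results reflect a 48-hour exposure of cells in 96-well plates to compound at five concentrations. At the GI50, growth is halved. TGI: concentration producing complete growth inhibition.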

Experiments:
Assay in all cases: NCI anticancer screen, dose series, 48 h
MDA-MB-435 = test system: MDA-MB-435
HS 578T breast = test system: HS 578T breast
MDA-MB-231 breast = test system: MDA-MB-231 breast
MCF7 breast = test system: MCF7 breast
M19-MEL melanoma = test system: M19-MEL melanoma
DMS 273 small cell lung = test system: DMS 273 small cell lung
HOP-18 NSCLC = test system: HOP-18 NSCLC
DLD-1 colon = test system: DLD-1 colon
LXFL 529 NSCLC = test system: LXFL 529 NSCLC

Structure (SMILES): NC(CCl)=NCC12CC3CC(CC(C3)C1)C2
- GI50 (MDA-MB-435): 0.474 µM
- TGI (MDA-MB-435): 7.11 µM
- GI50 (HS 578T breast): 4.47 µM
- TGI (HS 578T breast): 42.1 µM
- GI50 (MDA-MB-231 breast): 1750 nM
- TGI (MDA-MB-231 breast): 11.3 µM
- GI50 (MCF7 breast): 557 nM
- TGI (MCF7 breast): 6.9 µM

Structure (SMILES): COc1ccc(-c2c(NC(=O)Nc3ccc(Cl)c(C(F)(F)F)c3)cnn2-c2ccc(S(N)(=O)=O)cc2)cc1
- GI50 (MDA-MB-435): 2.77 µM
- TGI (MDA-MB-435): 9.6 µM
- GI50 (HS 578T breast): 3.41 µM
- TGI (HS 578T breast): 16.9 µM
- GI50 (MDA-MB-231 breast): 2040 nM
- TGI (MDA-MB-231 breast): 4.72 µM
- GI50 (MCF7 breast): 2670 nM
- TGI (MCF7 breast): 9.22 µM

Structure (SMILES): CC(=O)OC1CC2C(C)(C)C(=O)C=C[C@]2(C)C2CCC3(C)C(c4ccoc4)C(=O)C4OC43[C@]12C (some centres not stated)
- TGI (M19-MEL melanoma): 32.5 µM
- TGI (DMS 273 small cell lung): 75.6 µM
- TGI (HOP-18 NSCLC): > 100 µM
- TGI (DLD-1 colon): 34 µM
- TGI (LXFL 529 NSCLC): > 100 µM

Structure (SMILES): COc1ccc(-c2oc3ncnc(N)c3c2-c2ccc(NC(=O)Nc3cc(C(F)(F)F)ccc3F)cc2)cc1
- GI50 (MDA-MB-435): 0.871 µM
- TGI (MDA-MB-435): 3.95 µM
- GI50 (HS 578T breast): 0.833 µM
- TGI (HS 578T breast): 4.67 µM
- GI50 (MDA-MB-231 breast): 1100 nM
- TGI (MDA-MB-231 breast): 6.17 µM
- GI50 (MCF7 breast): 675 nM
- TGI (MCF7 breast): 3.21 µM

Structure (SMILES): COC(=O)[C@@H](C)C[C@H](Cc1ccc(F)cc1)NC(=O)c1csc([C@@H](C[C@H](C(C)C)N(C)C(=O)[C@@H](NC(=O)[C@H]2CCCCN2C)C2CC2)OC(C)=O)n1
- GI50 (MDA-MB-435): 0.0194 µM
- TGI (MDA-MB-435): 0.109 µM
- GI50 (HS 578T breast): 0.307 µM
- TGI (HS 578T breast): > 7.76 µM
- GI50 (MDA-MB-231 breast): 315 nM
- TGI (MDA-MB-231 breast): 1.65 µM
- GI50 (MCF7 breast): 58.7 nM
- TGI (MCF7 breast): > 25 µM

Structure (SMILES): NC1=C(O)/C(=N/NS(=O)(=O)c2ccccc2)C(c2ccc3c(c2)OCO3)O1 (configuration not stated)
- TGI (M19-MEL melanoma): 83.4 µM
- TGI (DMS 273 small cell lung): > 100 µM
- TGI (HOP-18 NSCLC): > 100 µM
- TGI (DLD-1 colon): > 100 µM
- TGI (LXFL 529 NSCLC): > 100 µM

Structure (SMILES): Oc1cccc2cccnc12
- TGI (DMS 273 small cell lung): 7.98 µM
- TGI (HOP-18 NSCLC): > 100 µM
- GI50 (MDA-MB-435): 13.3 µM and 21.5 µM and 5.94 µM
- TGI (MDA-MB-435): > 100 µM
- TGI (DLD-1 colon): > 100 µM
- TGI (LXFL 529 NSCLC): > 100 µM
- GI50 (HS 578T breast): > 100 µM
- TGI (HS 578T breast): > 100 µM
- TGI (MDA-MB-231 breast): > 28.7 µM and 84 µM and 33.1 µM
- GI50 (MCF7 breast): 1720 nM and 3310 nM
- TGI (MCF7 breast): 5.05 µM and > 31.6 µM

Structure (SMILES): COc1ccc(NC(=O)c2ccc(C(F)(F)F)nc2Nc2ccc(Cl)cc2C)cc1Cl
- GI50 (MDA-MB-435): 7.99 µM
- TGI (MDA-MB-435): 25.9 µM
- GI50 (HS 578T breast): 6.9 µM
- TGI (HS 578T breast): 28.3 µM
- GI50 (MDA-MB-231 breast): 1640 nM
- TGI (MDA-MB-231 breast): 6.82 µM
- GI50 (MCF7 breast): 2420 nM
- TGI (MCF7 breast): 13.1 µM

Structure (SMILES): Cc1ccc(S(=O)(=O)NC(Cc2ccccc2)C(=O)CCl)cc1 (configuration not stated)
- TGI (MDA-MB-435): 30.3 µM
- TGI (HS 578T breast): 11.3 µM
- TGI (MDA-MB-231 breast): 27.3 µM
- TGI (MCF7 breast): 24.5 µM

Structure (SMILES): COc1cc(OCCCN2CCCC2)ccc1Nc1ncc(Cl)c(Nc2ccccc2P(C)(C)=O)n1
- GI50 (MDA-MB-435): 1.65 µM
- TGI (MDA-MB-435): > 42.6 µM
- GI50 (HS 578T breast): 2.22 µM
- TGI (HS 578T breast): 10 µM
- GI50 (MDA-MB-231 breast): 1560 nM
- TGI (MDA-MB-231 breast): 11.7 µM
- GI50 (MCF7 breast): 867 nM
- TGI (MCF7 breast): 19.3 µM

Structure (SMILES): CC(=O)NNc1ncc(C(=O)/C=C/c2ccccc2C)s1
- TGI (M19-MEL melanoma): > 100 µM
- TGI (DMS 273 small cell lung): > 100 µM
- TGI (HOP-18 NSCLC): > 100 µM
- TGI (DLD-1 colon): > 100 µM

Structure (SMILES): CC1(C)N=C(N)N=C(N)N1c1cccc(CCCCc2ccc(Cl)c(S(=O)(=O)F)c2)c1
- GI50 (MDA-MB-435): 0.445 µM
- TGI (MDA-MB-435): 15.7 µM
- GI50 (HS 578T breast): 12.6 µM
- TGI (HS 578T breast): 35.9 µM
- GI50 (MDA-MB-231 breast): 11000 nM
- TGI (MDA-MB-231 breast): 25.8 µM
- GI50 (MCF7 breast): 3280 nM
- TGI (MCF7 breast): 17.7 µM

Structure (SMILES): C=C1C2CC(OC(C)=O)C3(C)C(c4ccoc4)OC(=O)[C@@H](O)[C@]13OC1C[C@H](OC(C)=O)C(C)(C)[C@H](C(O)C(=O)OC)[C@]12C (some centres not stated)
- TGI (M19-MEL melanoma): > 100 µM
- TGI (DMS 273 small cell lung): > 100 µM
- TGI (HOP-18 NSCLC): > 100 µM
- TGI (DLD-1 colon): > 100 µM
- TGI (LXFL 529 NSCLC): > 100 µM

Structure (SMILES): FC(F)(F)c1cccc(Oc2ccc(Nc3ncnc4ccc(OCCCN5CCOCC5)cc34)cc2Cl)c1
- GI50 (MDA-MB-435): 1.63 µM
- TGI (MDA-MB-435): 3.39 µM
- GI50 (MDA-MB-231 breast): 1800 nM
- TGI (MDA-MB-231 breast): 3.72 µM
- GI50 (MCF7 breast): 1740 nM
- TGI (MCF7 breast): 5.17 µM

Structure (SMILES): Cc1cc(C)c([I+]c2c(C)cc(C)cc2C)c(C)c1
- GI50 (MDA-MB-435): 0.327 µM
- TGI (MDA-MB-435): 1.24 µM
- GI50 (HS 578T breast): 0.795 µM
- TGI (HS 578T breast): 2.68 µM
- GI50 (MDA-MB-231 breast): 371 nM
- TGI (MDA-MB-231 breast): 1.38 µM
- GI50 (MCF7 breast): 325 nM
- TGI (MCF7 breast): 1.46 µM

Structure (SMILES): O=C(O)C(Cc1ccccc1)N=Cc1nc(-c2ccccc2)oc1O (configuration not stated)
- TGI (M19-MEL melanoma): > 100 µM
- TGI (DMS 273 small cell lung): > 100 µM
- TGI (DLD-1 colon): > 100 µM
- TGI (LXFL 529 NSCLC): > 100 µM

Structure (SMILES): COc1nc2c(c(=O)n1C)CN(c1ccccc1)C(=O)CN2C
- GI50 (MDA-MB-435): > 100 µM
- TGI (MDA-MB-435): > 100 µM
- GI50 (HS 578T breast): 13 µM
- TGI (HS 578T breast): 73.4 µM
- GI50 (MDA-MB-231 breast): 41700 nM
- TGI (MDA-MB-231 breast): > 100 µM
- GI50 (MCF7 breast): 6250 nM
- TGI (MCF7 breast): > 100 µM

Structure (SMILES): CC(=O)N(N=O)c1ccc(N(N=O)C(C)=O)cc1
- TGI (M19-MEL melanoma): > 100 µM
- TGI (DMS 273 small cell lung): > 100 µM
- TGI (DLD-1 colon): > 100 µM
- TGI (LXFL 529 NSCLC): > 100 µM

Structure (SMILES): N[C@@H](Cc1c[nH]c2ccccc12)C(=O)NC1CCN(Cc2c[nH]c3ccc(Cl)cc23)CC1
- GI50 (MDA-MB-435): 5.99 µM
- TGI (MDA-MB-435): 18.7 µM
- GI50 (HS 578T breast): 7.63 µM
- TGI (HS 578T breast): 24.5 µM
- GI50 (MDA-MB-231 breast): 2320 nM
- TGI (MDA-MB-231 breast): 6 µM
- GI50 (MCF7 breast): 5630 nM
- TGI (MCF7 breast): 20.9 µM

Structure (SMILES): Oc1c(CN2CCCCC2)ccc2cccnc12
- GI50 (MDA-MB-435): 4.65 µM
- TGI (MDA-MB-435): 21.4 µM
- GI50 (HS 578T breast): 11.1 µM
- TGI (HS 578T breast): > 100 µM
- GI50 (MDA-MB-231 breast): 4790 nM
- TGI (MDA-MB-231 breast): > 100 µM
- GI50 (MCF7 breast): 3380 nM
- TGI (MCF7 breast): 14.8 µM

Structure (SMILES): C/C(=N\NC(=O)c1ccccc1O)c1c(O)cc(C)oc1=O
- TGI (M19-MEL melanoma): > 100 µM
- TGI (HOP-18 NSCLC): > 100 µM
- TGI (DLD-1 colon): > 100 µM
- TGI (LXFL 529 NSCLC): > 100 µM

Structure (SMILES): O=C(Nc1ccc(Cl)cc1)c1cc(NCc2cc(O)ccc2O)ccc1O
- GI50 (MDA-MB-435): 12 µM
- TGI (MDA-MB-435): 27.2 µM
- GI50 (HS 578T breast): 9.12 µM
- TGI (HS 578T breast): 55.7 µM
- GI50 (MDA-MB-231 breast): 3490 nM
- TGI (MDA-MB-231 breast): 13.6 µM
- GI50 (MCF7 breast): 3870 nM
- TGI (MCF7 breast): 25.5 µM

Structure (SMILES): COc1ccc2cc(C(=O)N3CCC([C@@H](C)C(=O)NCc4ccc5c(c4)OCO5)CC3)[nH]c2c1
- GI50 (MDA-MB-435): 51.2 µM
- TGI (MDA-MB-435): > 100 µM
- GI50 (HS 578T breast): 27.9 µM
- TGI (HS 578T breast): > 100 µM
- GI50 (MDA-MB-231 breast): > 100000 nM
- TGI (MDA-MB-231 breast): > 100 µM
- GI50 (MCF7 breast): > 100000 nM
- TGI (MCF7 breast): > 100 µM

Structure (SMILES): CC(=O)CCc1ccc(Oc2c3ccccc3nc3occc23)cc1
- GI50 (MDA-MB-435): 17.7 µM
- TGI (MDA-MB-435): 43.9 µM
- GI50 (HS 578T breast): 20.4 µM
- TGI (HS 578T breast): 44.5 µM
- GI50 (MDA-MB-231 breast): 25500 nM
- TGI (MDA-MB-231 breast): > 100 µM
- GI50 (MCF7 breast): 21300 nM
- TGI (MCF7 breast): 46.3 µM

Structure (SMILES): CCCCNC(=O)Oc1ccc(/C(=C(\C)c2ccc(OC)cc2)c2ccc(OCCN3CCCCC3)cc2)cc1
- GI50 (MDA-MB-435): 1.78 µM
- TGI (MDA-MB-435): 3.67 µM
- GI50 (HS 578T breast): 2.14 µM
- TGI (HS 578T breast): 4.82 µM
- GI50 (MDA-MB-231 breast): 2080 nM
- TGI (MDA-MB-231 breast): 3.83 µM
- GI50 (MCF7 breast): 72.1 nM
- TGI (MCF7 breast): 3.99 µM
